The data set in a line: Thermodynamic aqueous solubility, shake-flask. The format is physicochemical. The note with it: PBS pH 7.4, 24 h, 25° C., assay standards. The text has this: In addition, chromatographic purity (%) was defined as the peak area of the principal peak relative to the total integrated peak area in the HPLC chromatogram of the calibration standard. A chromatogram of the calibration standard of each test compound, along with a UV/VIS spectrum with labeled absorbance maxima, was generated.

The mark [1] stands for this setting: PBS (shake-flask), aqueous buffer, thermodynamic from solid.

For orientation: solubility means how much of the substance goes into solution per volume. A high value points to a readily soluble substance.

Structures are written as SMILES. In brackets after ≈: the same amount, converted by molar mass.

`CC/C(=C(/CC)c1ccc(O)cc1)c1ccc(O)cc1` [Diethylstilbesterol] gave a solubility at 24 h of 7.0 µM (≈ 1.88 µg/mL). In turn, `CC(=O)N1CCN(c2ccc(OCC3COC(Cn4ccnc4)(c4ccc(Cl)cc4Cl)O3)cc2)CC1` (centres unmarked) [Ketoconazole] had a solubility at 24 h under setting [1] of 153 µM (≈ 81.2 µg/mL). The same measure, in the same setting: to `COCCc1ccc(OCC(O)CNC(C)C)cc1` (centres unmarked) [Metoprolol] belongs 193 µM (≈ 51.5 µg/mL); to `O=C1NC(=O)C(c2ccccc2)(c2ccccc2)N1` [Phenytoin], 102 µM (≈ 25.7 µg/mL); to `CO[C@H]1/C=C/O[C@@]2(C)Oc3c(C)c(O)c4c(O)c(c(/C=N/N5CCN(C)CC5)c(O)c4c3C2=O)NC(=O)/C(C)=C\C=C\[C@H](C)[C@H](O)[C@@H](C)[C@@H](O)[C@@H](C)[C@H](OC(C)=O)[C@@H]1C` [Rifampicin], 200 µM (≈ 165 µg/mL).

For the origin of these results see patent US20240245647A1, “ISOMEROHYDROLASE INHIBITOR FOR TREATMENT OF ATROPHIC FORM OF AGE-RELATED MACULAR DEGENERATION AND STARGARDT DISEASE” (The Trustees of Columbia University in the City of New York, priority 2021, published 2024).
